Data: patent publication US20040132037A1, “Materials and methods for the induction of premature chromosone condensation” (priority 2004, published 2004)
Read-outs that look alike come from different tables or passages of the source.

Assays:
mitogen-stimulated HPBL = experiment: PCC induction (PCC index) by OA in mitogen-stimulated HPBL; type: cell-based, human
Description: (§1) PCC spreads may be prepared according to standard cytogenetic procedures directly after the indicated treatment. Briefly, cells may be treated with a hypotonic potassium chloride (0.075 M) solution for 5 minutes and fixed in acetic: methanol (1:3) fixative. Fixed cells may be dropped onto acid cleaned glass slides.
(§2) To directly visualize the spread chromosomes, the slides may be stained. Suitable stains are known to those of skill in the art, for example, a 4% aqueous solution of Giemsa stain may be used for observation under a light microscope. Coded slides can be analyzed under 1000×magnification. Cells with condensed chromatin material displaying at least partial separation of chromosomes are scored as PCC spreads.
(§3) The PCC index may be determined as follows. [formula]
HPBLs prepared as described above may be incubated in cell culture medium supplemented with an energy source. In order to determine the optimal OA concentration and duration of incubation for PCC, phytohemagglutinin (PHA, 10 μg/ml; Murex Diagnostics) was subsequently added to the medium to stimulate proliferation.
(§4) The HPBL were treated with OA at concentrations ranging from 0.25 to 1 μM in a cell culture medium containing 100 μM ATP and incubated at 37° C. for varying durations of up to 24 hours. Slides were prepared and PCC index was determined as explained above.

unstimulated HPBL = experiment: PCC induction (PCC index) in unstimulated HPBL; type: cell-based, human; settings: cell culture medium containing OA alone, no mitogen
Description: as §1, §2, §3, §4
In the following working example of the present invention, PCC induction in unstimulated HPBL was accomplished by the addition of p34^cdc2/cyclin B kinase to the complete media supplemented with ATP (100 μM) containing OA (0.75 μM) and incubation for three hours at 37° C. […]

[1] = test system: human myeloid leukemic cell lines; settings: cited from earlier work

C=C1[C@@H](O)[C@@H]2O[C@]3(CC[C@H](/C=C/[C@@H](C)[C@@H]4CC(C)=C[C@@]5(O[C@H](C[C@@](C)(O)C(=O)O)CC[C@H]5O)O4)O3)CC[C@H]2O[C@@H]1[C@@H](O)C[C@H](C)[C@H]1O[C@@]2(CCCCO2)CC[C@H]1C [OA, okadaic acid]
PCC levels determined by PCC index compared with controls (mitogen-stimulated HPBL; OA 0.25 μM, within 1 hour, p<0.01, Student's t-test): significant
cytostatic effect (mitogen-stimulated HPBL; OA 0.75 μM): not cytostatic
PCC index, maximum (mitogen-stimulated HPBL; OA 1 μM, 8 hours, PHA 10 μg/ml, 100 μM ATP, 37° C.): 61%
quality of PCC spreads (mitogen-stimulated HPBL; prolonged treatment with higher concentrations of OA, possibly due to toxicity): poor spread quality
PCC induction (unstimulated HPBL): did not result in PCC induction
phase of cell-cycle arrest ([1]; higher PCC inducible concentrations (above 0.5 μM)): G1-S-phase
phase of cell-cycle arrest ([1]; lower concentrations): G2-M phase
